Publication PMC5103075, “An immunostimulatory dual-functional nanocarrier that improves cancer immunochemotherapy” (Nature Communications, 2016)
≈ marks a conversion by molar mass, not a printed value. Read-outs that look alike come from different tables or passages of the source.

What was measured:
[1] = system: 4T1.2 cells; test: MTT cytotoxicity in 4T1.2 cells; assay type: cell-based, mouse; settings: 4T1.2, 72 h; for IC50: means±s.e.m.
Experimental: (§1) 4T1.2 or PC3 cells at 2,000 cells/well were seeded in 96-well plates, respectively. […] After 3 days of incubation, 20 μl of 3-(4, 5-dimethylthiazol-2-yl)-2,5-diphenyltetrazoliumbromide (MTT) in DPBS (5 mg ml^−1) was added to each well and cells were further incubated for 2 h. Medium was removed and MTT formazan crystals were solubilized by 100 μl of DMSO per well. Absorbance of each well was measured with a microplate reader at wavelength of 550 nm. Untreated wells were used as controls. Cell viability was calculated as ((ODtreated−ODblank)/(ODcontrol−ODblank) × 100%).

[2] = system: PC3 cells; test: MTT cytotoxicity in PC3 cells; assay type: cell-based; settings: Homo sapiens, PC-3, PC3, 72 h, means±s.e.m.
Experimental: as §1

SMILES | IC50 [1] | Cytotoxicity (tumour cell growth inhibition) ([1]; Fig. 3d) | IC50 ([1]; Mus musculus, read-out: IC50) | IC50 [2]
COc1cccc2c1C(=O)c1c(O)c3c(c(O)c1C2=O)C[C@@](O)(C(=O)CO)C[C@@H]3O[C@H]1C[C@H](N)[C@H](O)[C@H](C)O1 [DOX, doxorubicin] | 0.2686 ± 0.02728 µg/mL (≈ 0.494 µM) | – | – | –
CC(=O)O[C@H]1C(=O)[C@@]2(C)[C@H]([C@H](OC(=O)c3ccccc3)[C@]3(O)C[C@H](OC(=O)[C@H](O)[C@@H](NC(=O)c4ccccc4)c4ccccc4)C(C)=C1C3(C)C)[C@]1(OC(C)=O)CO[C@@H]1C[C@@H]2O [PTX, Paclitaxel] | – | inhibited the tumour cell growth in a concentration-dependent manner | 0.245 ± 0.0211 µg/mL (≈ 0.286 µM) | 0.101 ± 0.0112 µg/mL (≈ 0.119 µM)
